# In ChEMBL document CHEMBL4043287, “A Structure-Activity Relationship Study of Bitopic N6-Substituted Adenosine Derivatives as Biased Adenosine A1 Receptor Agonists” (J Med Chem, 2018):
# Active and inactive are the calls of the source. No cut-off for these calls is given here.
# Biological target: T1, Adenosine receptor A1 (Homo sapiens, UniProt P30542)
# T1 sequence (P30542 whole entry): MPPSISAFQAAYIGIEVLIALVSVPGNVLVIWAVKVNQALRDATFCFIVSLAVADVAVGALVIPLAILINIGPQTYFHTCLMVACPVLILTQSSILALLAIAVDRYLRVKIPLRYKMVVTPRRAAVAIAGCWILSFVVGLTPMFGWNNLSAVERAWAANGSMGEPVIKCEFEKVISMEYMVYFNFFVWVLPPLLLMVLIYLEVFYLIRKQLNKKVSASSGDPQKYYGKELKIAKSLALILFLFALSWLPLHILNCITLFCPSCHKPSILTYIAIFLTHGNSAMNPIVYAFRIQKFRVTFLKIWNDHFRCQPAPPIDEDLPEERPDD
# Experiment: Agonist activity at human A1AR expressed in FlpIn-CHO cells assessed as intracellular calcium mobilization by measuring agonist transduction coefficient by Fluo-4 dye-based fluorescence assay
# Type: cell-based
row,log(activity),SMILES
1,7.03,O=C(NCCCCCCNc1ncnc2c1ncn2[C@@H]1O[C@H](CO)[C@@H](O)[C@H]1O)c1ccc(-c2sccc2-c2cccc(C(F)(F)F)c2)cc1
2,6.86,Nc1cc(-c2cccc(C(F)(F)F)c2)c(-c2ccc(C(=O)NCCCCCCNc3ncnc4c3ncn4[C@@H]3O[C@H](CO)[C@@H](O)[C@H]3O)cc2)s1
3,7.4,Nc1ccc(-c2cccc(C(=O)NCCCCCCNc3ncnc4c3ncn4[C@@H]3O[C@H](CO)[C@@H](O)[C@H]3O)c2)s1
4,6.32,Nc1sc(-c2ccc(C(=O)NCCCCCCNc3nc(Cl)nc4c3ncn4[C@@H]3O[C@H](CO)[C@@H](O)[C@H]3O)cc2)c(-c2cccc(C(F)(F)F)c2)c1C(=O)c1ccccc1

# Biological target: T1, Adenosine receptor A1
# Experiment: Agonist activity at human A1AR expressed in FlpIn-CHO cells assessed as intracellular calcium mobilization by Fluo-4 dye-based fluorescence assay relative to control
# Type: cell-based
row,Emax,SMILES
1,49%,O=C(NCCCCCCNc1ncnc2c1ncn2[C@@H]1O[C@H](CO)[C@@H](O)[C@H]1O)c1ccc(-c2sccc2-c2cccc(C(F)(F)F)c2)cc1
2,42%,Nc1cc(-c2cccc(C(F)(F)F)c2)c(-c2ccc(C(=O)NCCCCCCNc3ncnc4c3ncn4[C@@H]3O[C@H](CO)[C@@H](O)[C@H]3O)cc2)s1
3,47%,Nc1ccc(-c2cccc(C(=O)NCCCCCCNc3ncnc4c3ncn4[C@@H]3O[C@H](CO)[C@@H](O)[C@H]3O)c2)s1
4,20%,Nc1sc(-c2ccc(C(=O)NCCCCCCNc3nc(Cl)nc4c3ncn4[C@@H]3O[C@H](CO)[C@@H](O)[C@H]3O)cc2)c(-c2cccc(C(F)(F)F)c2)c1C(=O)c1ccccc1

# Biological target: T2, Adenosine receptor A3 (Homo sapiens) (UniProt P0DMS8)
# T2 sequence (whole entry): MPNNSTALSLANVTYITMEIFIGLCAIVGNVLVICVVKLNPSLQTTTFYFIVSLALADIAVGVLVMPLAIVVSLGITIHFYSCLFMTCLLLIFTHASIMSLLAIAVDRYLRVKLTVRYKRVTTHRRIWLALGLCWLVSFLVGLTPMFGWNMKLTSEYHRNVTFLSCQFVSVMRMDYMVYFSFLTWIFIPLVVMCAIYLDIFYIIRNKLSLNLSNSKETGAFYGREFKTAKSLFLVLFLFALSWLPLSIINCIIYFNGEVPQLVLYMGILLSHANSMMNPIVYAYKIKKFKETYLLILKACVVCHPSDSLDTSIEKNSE
# Experiment: Agonist activity at human A3AR expressed in FlpIn-CHO cells assessed as inhibition of forskolin-stimulated cAMP accumulation preincubated for 10 mins followed by forskolin addition measured after 30 mins by Alphascreen assay relative to control
# Type: functional, cell-based
row,Emax,SMILES
1,26%,O=C(NCCCCCCNc1ncnc2c1ncn2[C@@H]1O[C@H](CO)[C@@H](O)[C@H]1O)c1ccc(-c2sccc2-c2cccc(C(F)(F)F)c2)cc1
2,58%,Nc1cc(-c2cccc(C(F)(F)F)c2)c(-c2ccc(C(=O)NCCCCCCNc3ncnc4c3ncn4[C@@H]3O[C@H](CO)[C@@H](O)[C@H]3O)cc2)s1
3,72%,Nc1ccc(-c2cccc(C(=O)NCCCCCCNc3ncnc4c3ncn4[C@@H]3O[C@H](CO)[C@@H](O)[C@H]3O)c2)s1

# Biological target: Adenosine receptor A2a (Homo sapiens, UniProt P29274)
# Sequence (P29274 whole entry): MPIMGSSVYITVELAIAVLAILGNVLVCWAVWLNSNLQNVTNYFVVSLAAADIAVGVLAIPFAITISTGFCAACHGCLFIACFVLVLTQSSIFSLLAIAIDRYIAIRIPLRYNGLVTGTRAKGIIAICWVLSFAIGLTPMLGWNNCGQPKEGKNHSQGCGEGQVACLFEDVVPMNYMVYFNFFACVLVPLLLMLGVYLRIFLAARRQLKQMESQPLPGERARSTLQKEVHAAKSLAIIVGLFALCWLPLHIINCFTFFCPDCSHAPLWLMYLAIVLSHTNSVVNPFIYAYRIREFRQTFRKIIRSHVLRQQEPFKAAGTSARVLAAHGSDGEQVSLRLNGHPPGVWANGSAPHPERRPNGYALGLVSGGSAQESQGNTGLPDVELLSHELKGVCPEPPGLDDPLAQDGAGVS
# Experiment: Agonist activity at human A2A-AR expressed in FlpIn-CHO cells assessed as inhibition of forskolin-stimulated cAMP accumulation preincubated for 40 mins followed by forskolin addition measured after 30 mins by Alphascreen assay
row,EC50,SMILES
1,646 nM,O=C(NCCCCCCNc1ncnc2c1ncn2[C@@H]1O[C@H](CO)[C@@H](O)[C@H]1O)c1ccc(-c2sccc2-c2cccc(C(F)(F)F)c2)cc1
2,2690 nM,Nc1cc(-c2cccc(C(F)(F)F)c2)c(-c2ccc(C(=O)NCCCCCCNc3ncnc4c3ncn4[C@@H]3O[C@H](CO)[C@@H](O)[C@H]3O)cc2)s1
3,1070 nM,Nc1ccc(-c2cccc(C(=O)NCCCCCCNc3ncnc4c3ncn4[C@@H]3O[C@H](CO)[C@@H](O)[C@H]3O)c2)s1
4,145 nM,Nc1sc(-c2ccc(C(=O)NCCCCCCNc3nc(Cl)nc4c3ncn4[C@@H]3O[C@H](CO)[C@@H](O)[C@H]3O)cc2)c(-c2cccc(C(F)(F)F)c2)c1C(=O)c1ccccc1

# Biological target: T3, Adenosine receptor A2b (Homo sapiens, UniProt P29275)
# T3 sequence (P29275 whole entry): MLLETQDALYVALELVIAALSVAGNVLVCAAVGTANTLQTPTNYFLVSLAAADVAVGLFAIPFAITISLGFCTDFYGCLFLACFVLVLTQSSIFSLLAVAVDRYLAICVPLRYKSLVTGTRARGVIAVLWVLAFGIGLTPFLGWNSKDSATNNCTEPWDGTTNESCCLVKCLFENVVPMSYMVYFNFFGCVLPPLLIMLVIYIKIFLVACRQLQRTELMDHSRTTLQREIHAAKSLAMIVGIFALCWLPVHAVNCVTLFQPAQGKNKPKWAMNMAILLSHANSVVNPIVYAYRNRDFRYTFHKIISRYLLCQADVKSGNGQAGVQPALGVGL
# Experiment: Agonist activity at human A2BAR expressed in FlpIn-CHO cells assessed as […] cAMP accumulation preincubated for 40 mins followed by forskolin addition measured after 30 mins by Alphascreen assay
# Type: functional, cell-based
row,EC50,SMILES
1,91.2 nM,O=C(NCCCCCCNc1ncnc2c1ncn2[C@@H]1O[C@H](CO)[C@@H](O)[C@H]1O)c1ccc(-c2sccc2-c2cccc(C(F)(F)F)c2)cc1
2,447 nM,Nc1cc(-c2cccc(C(F)(F)F)c2)c(-c2ccc(C(=O)NCCCCCCNc3ncnc4c3ncn4[C@@H]3O[C@H](CO)[C@@H](O)[C@H]3O)cc2)s1
3,60.3 nM,Nc1ccc(-c2cccc(C(=O)NCCCCCCNc3ncnc4c3ncn4[C@@H]3O[C@H](CO)[C@@H](O)[C@H]3O)c2)s1
4,18.6 nM,Nc1sc(-c2ccc(C(=O)NCCCCCCNc3nc(Cl)nc4c3ncn4[C@@H]3O[C@H](CO)[C@@H](O)[C@H]3O)cc2)c(-c2cccc(C(F)(F)F)c2)c1C(=O)c1ccccc1

# Biological target: T4, Adenosine receptor A2b (Homo sapiens) (UniProt P29275)
# T4 sequence (whole entry): T3 sequence (P29275 whole entry)
# Experiment: Agonist activity at human A2BAR expressed in FlpIn-CHO cells assessed as […] cAMP accumulation preincubated for 40 mins followed by forskolin addition measured after 30 mins by Alphascreen assay relative to control
# Type: functional, cell-based
row,Emax,SMILES
1,44%,O=C(NCCCCCCNc1ncnc2c1ncn2[C@@H]1O[C@H](CO)[C@@H](O)[C@H]1O)c1ccc(-c2sccc2-c2cccc(C(F)(F)F)c2)cc1
2,28%,Nc1cc(-c2cccc(C(F)(F)F)c2)c(-c2ccc(C(=O)NCCCCCCNc3ncnc4c3ncn4[C@@H]3O[C@H](CO)[C@@H](O)[C@H]3O)cc2)s1
3,45%,Nc1ccc(-c2cccc(C(=O)NCCCCCCNc3ncnc4c3ncn4[C@@H]3O[C@H](CO)[C@@H](O)[C@H]3O)c2)s1
4,39%,Nc1sc(-c2ccc(C(=O)NCCCCCCNc3nc(Cl)nc4c3ncn4[C@@H]3O[C@H](CO)[C@@H](O)[C@H]3O)cc2)c(-c2cccc(C(F)(F)F)c2)c1C(=O)c1ccccc1

# Biological target: T5, Adenosine receptor A3 (Homo sapiens, UniProt P0DMS8)
# T5 sequence (P0DMS8 whole entry): T2 sequence (whole entry)
# Experiment: Agonist activity at human A3AR expressed in FlpIn-CHO cells assessed as inhibition of forskolin-stimulated cAMP accumulation preincubated for 10 mins followed by forskolin addition measured after 30 mins by Alphascreen assay
row,EC50,SMILES
1,347 nM,O=C(NCCCCCCNc1ncnc2c1ncn2[C@@H]1O[C@H](CO)[C@@H](O)[C@H]1O)c1ccc(-c2sccc2-c2cccc(C(F)(F)F)c2)cc1
2,282 nM,Nc1cc(-c2cccc(C(F)(F)F)c2)c(-c2ccc(C(=O)NCCCCCCNc3ncnc4c3ncn4[C@@H]3O[C@H](CO)[C@@H](O)[C@H]3O)cc2)s1
3,64.6 nM,Nc1ccc(-c2cccc(C(=O)NCCCCCCNc3ncnc4c3ncn4[C@@H]3O[C@H](CO)[C@@H](O)[C@H]3O)c2)s1

# Biological target: T2, Adenosine receptor A3 (Homo sapiens)
# Experiment: Agonist activity at human A3AR expressed in FlpIn-CHO cells assessed as inhibition of forskolin-stimulated cAMP accumulation up to 10 uM preincubated for 10 mins followed by forskolin addition measured after 30 mins by Alphascreen assay
# Type: functional, cell-based
row,inhibition,SMILES
1,inactive,Nc1sc(-c2ccc(C(=O)NCCCCCCNc3nc(Cl)nc4c3ncn4[C@@H]3O[C@H](CO)[C@@H](O)[C@H]3O)cc2)c(-c2cccc(C(F)(F)F)c2)c1C(=O)c1ccccc1

# Biological target: T1, Adenosine receptor A1
# Experiment: Agonist activity at human A1AR expressed in FlpIn-CHO cells assessed as inhibition of forskolin-stimulated cAMP accumulation preincubated for 10 mins followed by forskolin addition measured after 30 mins by Alphascreen assay
# Type: functional, cell-based
row,EC50,SMILES
1,170 nM,O=C(NCCCCCCNc1ncnc2c1ncn2[C@@H]1O[C@H](CO)[C@@H](O)[C@H]1O)c1ccc(-c2sccc2-c2cccc(C(F)(F)F)c2)cc1
2,38 nM,Nc1cc(-c2cccc(C(F)(F)F)c2)c(-c2ccc(C(=O)NCCCCCCNc3ncnc4c3ncn4[C@@H]3O[C@H](CO)[C@@H](O)[C@H]3O)cc2)s1
3,224 nM,Nc1sc(-c2ccc(C(=O)NCCCCCCNc3nc(Cl)nc4c3ncn4[C@@H]3O[C@H](CO)[C@@H](O)[C@H]3O)cc2)c(-c2cccc(C(F)(F)F)c2)c1C(=O)c1ccccc1

# Biological target: T1, Adenosine receptor A1
# Experiment: Agonist activity at human A1AR expressed in FlpIn-CHO cells assessed as intracellular calcium mobilization by Fluo-4 dye-based fluorescence assay
# Type: cell-based
row,EC50,SMILES
1,77.6 nM,O=C(NCCCCCCNc1ncnc2c1ncn2[C@@H]1O[C@H](CO)[C@@H](O)[C@H]1O)c1ccc(-c2sccc2-c2cccc(C(F)(F)F)c2)cc1
2,110 nM,Nc1cc(-c2cccc(C(F)(F)F)c2)c(-c2ccc(C(=O)NCCCCCCNc3ncnc4c3ncn4[C@@H]3O[C@H](CO)[C@@H](O)[C@H]3O)cc2)s1
3,34.7 nM,Nc1ccc(-c2cccc(C(=O)NCCCCCCNc3ncnc4c3ncn4[C@@H]3O[C@H](CO)[C@@H](O)[C@H]3O)c2)s1
4,135 nM,Nc1sc(-c2ccc(C(=O)NCCCCCCNc3nc(Cl)nc4c3ncn4[C@@H]3O[C@H](CO)[C@@H](O)[C@H]3O)cc2)c(-c2cccc(C(F)(F)F)c2)c1C(=O)c1ccccc1
